Data as given in patent US20260109731A1, “NE[…] USE THEREOF” (HUNAN MINGRUI PHARMACEUTICAL CO., LTD., priority 2023, published 2026).

Assay: In vitro phase I metabolic stability in male SD rat hepatic microsomes
Format: in vitro ADME
Details: male SD rat hepatic microsomes; for half-life / microsomal CLint: liver microsomes; for half-life: NADPH system, read-out: T1/2 (in vitro metabolic half-life); for half-life / In vitro CLint / k (slope of ln remaining percentage against incubation time): 37° C.; for microsomal CLint: read-out: intrinsic clearance
Procedure: Phase I metabolic stability kit (purchased from HUIZHI HEYUAN BIOTECHNOLOGY (BEIJING) CO., LTD), with the following components of the product:
Positive substrate testosterone solution (10 mM): diluted with acetonitrile to prepare a 200 μM solution for later use; stop solution & internal standard (testosterone-D3): dissolved with acetonitrile to prepare a 5 ng/mL solution for later use.
• 1) all components of the kit were thawed in an ice bath and placed on ice for later use; • 2) an incubation system (taking 200 μL system as an example) was prepared:
• 3) 160 μL of pre-incubation solution B was added into the centrifuge tube containing 40 μL of pre-incubation solution A, uniform mixing was performed by pipetting three times, and the resulting mixture was immediately placed in a water bath at 37° C. for incubation and timing was started; • 4) at predetermined incubation time points (0, 5, 10, 15, 30, 45, 60 minutes), the incubation solution was quantitatively taken out, and 200 μL of stop solution (5 ng/mL testosterone-D3 in acetonitrile, pre-chilled at 4° C.) was added to terminate the reaction (stop solution volume: incubation system volume=1:1). Experimental samples were prepared in triplicate at each time point.
To verify the validity of the experiment, a positive control group was established concurrently in the whole experiment to evaluate whether the incubation system functioned properly, with the preparation method as follows: the compound to be tested was replaced with the positive substrate testosterone (200 μM in acetonitrile) from the phase I metabolic stability kit, and the other components of the incubation system and experimental method were the same as those of the experimental group.
The ratio of the chromatographic peak area of the compound to be tested to the chromatographic peak area of the testosterone-D3 (internal standard) was used as the calculated data. By taking the peak area ratio at time zero of the test compound as 100%, the remaining percentages were calculated by comparing the peak area ratio at each time point with the peak area ratio at time zero, and the natural logarithms of the remaining percentages of the substrate at each time point are then subjected to linear regression against the incubation times to obtain the slope k. Therefore, the in vitro metabolic half-life (T1/2) and intrinsic clearance (CLint) were calculated using the following formulas: […]

For `CC(=O)[C@H]1CC[C@H]2[C@@H]3CC[C@H]4C[C@H](O)CC[C@]4(C)[C@H]3CC[C@]12C` [Allopregnanolone, 5α-pregnan-3α-ol-20-one, reference compound], the half-life was 2.17 min, the microsomal CLint was 639 µL/min/mg and the “In vitro CLint” value was 639.28 μL/min/mg protein. For the same compound, the “k (slope of ln remaining percentage against incubation time)” value was −0.3196.

For `CC(=O)[C@H]1CC[C@H]2[C@@H]3CC[C@H]4C[C@H](O[N+](=O)[O-])CC[C@]4(C)[C@H]3CC[C@]12C` [Compound 1], the half-life was 93.5 min, the microsomal CLint was 14.8 µL/min/mg and the “In vitro CLint” value was 14.82 μL/min/mg protein. For the same compound, the “k (slope of ln remaining percentage against incubation time)” value was −0.0074.
